The results in this text go back to US4136188A, “Treatment of diabetes with 2-substituted-1,3-diazacyclic compounds” (priority 1976, dated 1979).

Series [1] has as its system blood glucose. In words: Hypoglycemic activity: dose-effect relationship in normal rats. The class given is in vivo, male Wistar rats. How it is done:
Five male Wistar rats weighing about 170g were used at each dosage level. […] 2, 3 and 5 hours after administration, a blood sample was taken from the tail vein of the rat and assayed for glucose by the glucose oxidase method.

The test system of series [2] is platelet aggregation. In words: Inhibitory action on collagen-induced platelet aggregation in platelet rich plasma. Format: cell-based. The settings on record: concentration giving 50% inhibition of reaction rate of collagen-induced platelet aggregation, rat platelet rich plasma, 30° C; read-out: Inhibitory Action ID50. The procedure:
Platelet rich plasma was prepared by centrifugation (1000 rpm, 5 min.) of fresh citrated rat blood. Fifty microliters of a solution containing a test compound at various concentrations were added to 0.4 ml of the platelet rich plasma, and the mixture was stirred for 1 minute at 1100 rpm and 30° C. Then, 50 μl of a collagen suspension was added to initiate platelet aggregation, which was measured turbidometrically according to G.V.R. Born (Nature, 194, 927, 1962). The ID50 values represent the concentration (mM) of the compound giving a 50% inhibition of the reaction rate of […] platelet aggregation.

Series [3] deals with blood glucose. Put plainly: Glucose tolerance test in streptozotocin-induced mildly diabetic rats. The class given is in vivo, male Wistar rats (streptozotocin diabetic). The procedure: An aqueous solution or suspension of a test compound was orally administered to male Wistar rats which had not been fed for 24 hours prior to oral administration and which had been rendered diabetic for about 2 months by a single intravenous injection of streptozotocin (20 mg/kg body weight). Control diabetic rats received water. Unfed (fasted) and fed blood glucose levels of the rats were 89 ± 1~103 ± 4 mg/dl and 123 ± 2~189 ± 11 mg/dl, respectively. […] Blood samples were taken from the tail vein just before and 15, 30, 60 and 90 minutes after glucose loading, and were assayed for blood glucose. The glucose tolerance of the rats was estimated by the increase in blood glucose during the 90 minutes after glucose loading, i.e., [formula]

Series [4] relates to serum lactate. In words: Effect on serum lactate level. Format: in vivo, male Wister rat. The settings on record: 200 mg/kg daily oral for 4 days; for Percent of Initial Serum Lactate, 24 hrs: just before the 2nd dosing; for Percent of Initial Serum Lactate, 76 hrs: 3 hours after the last dosing. The procedure:
An aqueous solution or suspension of a test compound was orally administered to a normal male Wister rat weighing about 200 g at a daily dose of 200 mg/kg body weight for 4 days (5 rats/group). Blood samples were taken consecutively from the tail vein, and were assayed for serum lactate by the method of Hans-Jurgens Hohorst (Methods of Enzymatic Analysis, ed. by Hans Ulrich Bergmayer, Academic Press Inc., New York, 1965).

Series [5] in a line: Acute toxicity in rats by oral administration. As to conditions: rat, in vivo, male Donryu rats, mortality on the 7th day, Litchfield and Wilcoxon. How it is done: Acute Toxicity tests were carried out in rats by oral administration. Each LD50 was calculated from the mortality percentage on the 7th day according to the method of Litchfield and Wilcoxon. Ten male rats of the Donryu strain were used at each dose level.

Series [6] deals with blood glucose. In words: Long-term administration in streptozotocin-induced diabetic rats: fed blood glucose. The settings on record: 485 ± 18 at start, control 415 ± 27. The class given is in vivo, male Wistar rats (streptozotocin diabetic). The procedure: (§1) Diabetes was induced in male Wistar rats weighing about 170 g by a single intraperitoneal (60 mg/kg body weight) or intravenous (35 mg/kg) injection of streptozotocin. […] These rats were treated with Compound A, tolubutamide or phenformin at a daily oral dose of 25, 50 or 10 mg/kg body weight, respectively. Control diabetic rats received no treatment. The treatment was started 1 month after streptozotocin injection and continued for 4 (tolubutamide and phenformin) or 5 months (Compound A).
Fed blood glucose levels of the rats were 485 ± 18 mg/dl at the start of the treatment and 415 ± 27 (control group), 423 ± 17 (Compound A group), 447 ± 15 (tolubutamide group) and 425 ± 29 mg/dl (phenformin group) at the end of the experiment.

Series [7] concerns immunoreactive insulin (IRI). Put plainly: Insulin releasing action. Format: in vivo, male Wistar rat. How it is done: A saline solution containing a test compound was injected into the femoral vein of a normal male Wistar rat weighing about 200 g under pentobarbital anesthesia (5 rats/group). Control rats received a saline injection. Blood samples were taken from the tail vein before and 10, 20, 30 and 40 minutes after injection of the test compound, and were assayed for immunoreactive insulin (IRI) by the method of C. R. Morgan et al (Diabetes, 12, 115.1963).

For series [8], the system named is blood glucose. Put plainly: Glucose tolerance test in normal rats. Format: in vivo, male Wistar rats. The procedure:
Five male Wistar rats weighing about 200g were used at each dose level. An aqueous solution or suspension of a test compound was orally administered by means of a stomach tube to each rat which had not been fed for 24 hours before administration. […] Blood samples were taken from the tail vein just before and 15, 30, 60 and 90 minutes after glucose loading, and were assayed for blood glucose. The glucose tolerance of the rats was estimated by the increase in blood glucose during the 90 minutes after glucose loading [formula]

Series [9] deals with serum lipids. Put plainly: Long-term administration in streptozotocin-induced diabetic rats: serum lipids. Format: in vivo, male Wistar rats (streptozotocin diabetic). As to conditions: for hyperlipidemia / serum triglyceride tendency (in words): long-term administration, diabetic rats. The procedure:
as §1
(§2) At the end of the experiment, the rats were sacrificed for histological examination of the kidneys and the liver and for determination of serum lipids.

The subject of series [10] is kidneys. Put plainly: Long-term administration in streptozotocin-induced diabetic rats: histological examination of the kidneys. The class given is in vivo, male Wistar rats (streptozotocin diabetic). The procedure: as §1, §2
[11] abbreviates: 25 mg/kg oral, fasted normal rats.
[12] abbreviates: 10 mg/kg oral, 1 hour prior to glucose loading.
Setting [13] is: 10 mg/kg oral, 1 hour prior to glucose loading, control 265 ± 21 (A), 206 ± 18 (B, C).
Where [14] appears, read: 10 mg/kg oral, 1 hour prior to glucose loading (1 g/kg i.p.), control 121 ± 14 (A), 127 ± 8 (B, C).
The mark [15] stands for this setting: 25 mg/kg daily, 5 months, 7 rats.
The mark [16] stands for this setting: 25 mg/kg i.v., control 50 ± 8, 0-40 minutes.
Where [17] appears, read: 10 mg/kg daily, 4 months, 7 rats, * = significant, p < 0.05 vs. diabetic control.
[18] abbreviates: 20 mg/kg oral, given 30 minutes prior to glucose loading.
Setting [19] is: 50 mg/kg daily, 4 months, 8 rats.

For the molecule “1-methyl-2-benzhydryliminoimidazolidine.hydroiodide [Example 4]”, in series [1] (setting [11]), the “Decrease in blood glucose (% based on the control), 3 hrs” value was determined as 32% and the “Decrease in blood glucose (% based on the control), 5 hrs” value worked out at 19%.

As to “2-benzhydryliminoimidazolidine hydrochloride [Example 3]”, in series [1] (setting [11]), the “Decrease in blood glucose (% based on the control), 3 hrs” value is listed as 39% and the “Decrease in blood glucose (% based on the control), 5 hrs” value came to 39%.

Take `CN1CCNC1=NC(c1ccccc1)c1ccccc1` [Compound A, 1-methyl-2-benzhydryliminoimidazolidine]: the IC50 in series [2] was 320 µM. Besides, the “Improvement of glucose tolerance” value in [3] (setting [12]) is 43.0%. In addition, the “Increase in blood glucose during the 90 minutes after glucose loading, test compound (head [drawing 15])” value (from here on “Increase … (head [drawing 15])”) in series [3] (setting [13]) was found to be 151 ± 43. Also, in [4], the “Percent of Initial Serum Lactate, 24 hrs” value was 114.9% and the “Percent of Initial Serum Lactate, 76 hrs” value stood at 94.6%. Also, the LD50 (in general, the dose expected to kill half of the subjects tested) at 168 h in [5] was found to be 660 mg/kg. Moreover, the “Fed blood glucose level at the end of the experiment” value (“Fed blood glucose level at the end” below) in series [6] (25 mg/kg daily oral, 5 months) came out at 423 ± 17 mg/dL. The “Insulin Released [ΣΔIRI (0-40)]” value in [7] (25 mg/kg i.v., second column (control 42 ± 19), 0-40 minutes) was 208 ± 21 μunit/ml serum. The “Increase in glucose tolerance” value in series [8] (setting [12]) turned out to be 52.1%. In addition, the “Increase in blood glucose during the 90 minutes after glucose loading, test compound (head [drawing 13])” value (from here on “Increase … (head [drawing 13])”) in series [8] (setting [14]) is on record as 58 ± 4. Also, in [9] (setting [15]), the Serum cholesterol was 78.7 % of control and the “Serum free fatty acid” value is 86.1 % of control. Moreover, the Serum triglyceride in series [9] (25 mg/kg daily, 5 months, 7 rats, * = significant, p < 0.05 vs. diabetic control) was 53.0 % of control.

Consider `c1ccc(C(CC2=NCCN2)c2ccccc2)cc1` [Compound B, 2-(2,2-diphenylethyl)-2-imidazoline], for which the IC50 in [2] was 50 µM. Further, the “Improvement of glucose tolerance” value in series [3] (setting [12]) came out at 74.8%. For the same molecule, the “Increase … (head [drawing 15])” value in series [3] (setting [13]) was determined as 52 ± 12. For the same molecule, in series [4], the “Percent of Initial Serum Lactate, 24 hrs” value was 139.6% and the “Percent of Initial Serum Lactate, 76 hrs” value amounted to 113.3%. This molecule also gave an LD50 at 168 h in series [5] of 562 mg/kg. The “Insulin Released [ΣΔIRI (0-40)]” value in series [7] (setting [16]) was 250 ± 13 μunit/ml serum. In addition, the “Increase in glucose tolerance” value in series [8] (setting [12]) turned out to be 96.9%. Also, the “Increase … (head [drawing 13])” value in [8] (setting [14]) amounted to 4 ± 12.

As for `CN1CCN=C1CC(c1ccccc1)c1ccccc1` [Compound C, 1-methyl-2-(2,2-diphenylethyl)-2-imidazoline], the IC50 in series [2] is 120 µM. Also, the “Improvement of glucose tolerance” value in series [3] (setting [12]) worked out at 17.5%. The “Increase … (head [drawing 15])” value in [3] (setting [13]) turned out to be 170 ± 15. Besides, the “Insulin Released [ΣΔIRI (0-40)]” value in series [7] (setting [16]) was determined as 214 ± 17 μunit/ml serum. The “Increase in glucose tolerance” value in series [8] (setting [12]) amounted to 26.0%. Further, in series [8] (setting [14]), the “Increase … (head [drawing 13])” value is given as 94 ± 8.

As for `CN1CCN(C(=O)c2ccccc2)C1=NC(c1ccccc1)c1ccccc1` [Compound D, 1-methyl-2-benzhydrylimino-3-benzoylimidazolidine], in series [2], the IC50 is 270 µM. In addition, in series [5], the LD50 at 168 h is above 1000 mg/kg.

On to `CN1CCN(C(=O)c2cccs2)C1=NC(c1ccccc1)c1ccccc1` [Compound E, 1-methyl-2-benzhydrylimino-3-thienoylimidazolidine], for which the IC50 in series [2] turned out to be 130 µM. In [5], the LD50 at 168 h was above 1000 mg/kg.

For the molecule `CN1CCN(C(=O)c2cccnc2)C1=NC(c1ccccc1)c1ccccc1` [Compound F, 1-methyl-2-benzhydrylimino-3-nicotinoyl-imidazolidine], in series [2], the IC50 stood at 480 µM.

On to `CN1CCCC1=NC(c1ccccc1)c1ccccc1` [Compound Q, Benzhydryl Lactamimide, reference compound], for which the “Insulin Released [ΣΔIRI (0-40)]” value in [7] (setting [16]) amounted to 198 ± 16 μunit/ml serum.

For the molecule `CN1CCCC1=NC(c1ccccc1)c1ccccc1` [Compound Z, reference compound], in [4], the “Percent of Initial Serum Lactate, 24 hrs” value was 152.1% and the “Percent of Initial Serum Lactate, 76 hrs” value worked out at 218.8%.

Take `[H]/N=C(/N)N/C(=N/[H])NCCc1ccccc1` [Phenformin, phenformin, reference compound]: in [4], the “Percent of Initial Serum Lactate, 24 hrs” value stood at 196.6% and the “Percent of Initial Serum Lactate, 76 hrs” value turned out to be 283.6%. In series [1] (Dose = 100 mg/kg oral), the “Decrease in blood glucose (% based on the control), 2 hrs” value is 10%; the “Decrease in blood glucose (% based on the control), 3 hrs” value is 15%; the “Decrease in blood glucose (% based on the control), 5 hrs” value was found to be 15%. Also, the “Fed blood glucose level at the end” value in series [6] (10 mg/kg daily oral, 4 months) was 425 ± 29 mg/dL. In addition, in series [9] (setting [17]), the Serum cholesterol was 180.0 % of control, the “Serum free fatty acid” value is given as 157.0 % of control and the Serum triglyceride is 225.7 % of control. Also, the “hyperlipidemia / serum triglyceride tendency (in words)” value in [9] is recorded as “increased tendency of hyperlipidemia”.

As to `CCCCNC(=O)NS(=O)(=O)c1ccc(C)cc1` [Tolubutamide, tolubutamide, reference compound], the “Improvement of glucose tolerance” value in [3] (setting [18]) was 32.6%. The “Increase … (head [drawing 15])” value in series [3] (20 mg/kg oral, given 30 minutes prior to glucose loading, 3 rats, control 265 ± 21) came out at 179 ± 23. Moreover, the “kidney histology: diffuse glomerulosclerosis and tubular alterations (in words)” value in series [10] is given as “to some extent, deteriorated”. Further, in series [1] (setting [11]), the “Decrease in blood glucose (% based on the control), 2 hrs” value is 20%; the “Decrease in blood glucose (% based on the control), 3 hrs” value worked out at 24%; the “Decrease in blood glucose (% based on the control), 5 hrs” value is given as 20%. Moreover, in [6] (50 mg/kg daily oral, 4 months), the “Fed blood glucose level at the end” value was determined as 447 ± 15 mg/dL. Moreover, in series [7] (50 mg/kg i.v., control 50 ± 8, 0-40 minutes), the “Insulin Released [ΣΔIRI (0-40)]” value came to 189 ± 26 μunit/ml serum. For the same molecule, in series [7] (50 mg/kg i.v., second column (control 42 ± 19), 0-40 minutes), the “Insulin Released [ΣΔIRI (0-40)]” value was 141 ± 14 μunit/ml serum. In addition, in series [8] (setting [18]), the “Increase in glucose tolerance” value is on record as 31.4%. Besides, the “Increase … (head [drawing 13])” value in series [8] (20 mg/kg oral, given 30 minutes prior to glucose loading (1 g/kg i.p.), control 121 ± 14) is recorded as 83 ± 14. Moreover, in series [9] (setting [19]), the “Serum free fatty acid” value was 133.0 % of control and the Serum triglyceride is 186.8 % of control. Also, the Serum cholesterol in series [9] (50 mg/kg daily, 4 months, 8 rats, * = significant, p < 0.05 vs. diabetic control) was 150.0 % of control. For the same molecule, the “hyperlipidemia / serum triglyceride tendency (in words)” value in [9] was “increased tendency of hyperlipidemia”.
